Results taken from US6900193B1, “Structural modification of 19-norprogesterone I: 17-α-substituted-11-β-substituted-4-aryl and 21-substituted 19-norpregnadienedione as new antiprogestational agents” (The United States of America as represented by the …, priority 1996, dated 2005).
Marks after values point to notes of the source that are not given here.

What was measured:
[1] = molecular target: T1, glucocorticoid receptor (estrogen-primed rabbit thymus) (Oryctolagus cuniculus, UniProt P59667); assay: Relative binding affinity, glucocorticoid receptor; conditions: estrogen-primed rabbit thymus, dexamethasone = 100%; for BINDING AFFINITY Glucocortic: Table 2
T1 construct: preparation of cytosols for the progesterone and glucocorticoid receptor assays; from tissue; host or cells: thymus of estradiol-primed immature female New Zealand White rabbits (cytosol)
T1 sequence (P59667 1-772): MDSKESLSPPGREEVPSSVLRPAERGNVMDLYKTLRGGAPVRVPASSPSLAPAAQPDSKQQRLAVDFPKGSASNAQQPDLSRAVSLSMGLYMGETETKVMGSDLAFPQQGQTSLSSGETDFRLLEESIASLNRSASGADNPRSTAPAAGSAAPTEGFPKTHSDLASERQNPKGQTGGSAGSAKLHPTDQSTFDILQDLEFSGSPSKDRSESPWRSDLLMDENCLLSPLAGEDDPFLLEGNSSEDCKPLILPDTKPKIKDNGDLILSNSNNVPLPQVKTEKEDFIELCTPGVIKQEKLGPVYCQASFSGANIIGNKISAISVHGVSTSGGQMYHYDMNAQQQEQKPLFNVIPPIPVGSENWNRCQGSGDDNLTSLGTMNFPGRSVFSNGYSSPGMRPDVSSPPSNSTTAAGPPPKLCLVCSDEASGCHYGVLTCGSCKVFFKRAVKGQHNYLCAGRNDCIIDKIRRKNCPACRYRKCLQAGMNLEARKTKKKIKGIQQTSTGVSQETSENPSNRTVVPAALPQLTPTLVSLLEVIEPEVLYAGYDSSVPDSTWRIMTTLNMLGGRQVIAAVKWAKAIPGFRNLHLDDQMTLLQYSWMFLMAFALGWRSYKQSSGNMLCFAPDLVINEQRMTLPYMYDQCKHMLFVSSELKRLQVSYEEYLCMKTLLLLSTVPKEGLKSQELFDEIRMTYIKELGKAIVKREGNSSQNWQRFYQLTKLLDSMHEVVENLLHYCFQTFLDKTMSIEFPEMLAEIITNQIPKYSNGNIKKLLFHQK

[2] = molecular target: T2, progesterone receptor (estrogen-primed rabbit uterus) (Oryctolagus cuniculus, UniProt P06186); assay: Relative binding affinity, progesterone receptor; conditions: for RELATIVE BINDING AFFINITY Progesterone / BINDING AFFINITY Progester: estrogen-primed rabbit uterus, progesterone = 100%; for BINDING AFFINITY Progester: Table 2
T2 construct: preparation of cytosols for the progesterone and glucocorticoid receptor assays; from tissue; host or cells: uterus of estradiol-primed immature female New Zealand White rabbits (cytosol)
T2 sequence (P06186 1-930): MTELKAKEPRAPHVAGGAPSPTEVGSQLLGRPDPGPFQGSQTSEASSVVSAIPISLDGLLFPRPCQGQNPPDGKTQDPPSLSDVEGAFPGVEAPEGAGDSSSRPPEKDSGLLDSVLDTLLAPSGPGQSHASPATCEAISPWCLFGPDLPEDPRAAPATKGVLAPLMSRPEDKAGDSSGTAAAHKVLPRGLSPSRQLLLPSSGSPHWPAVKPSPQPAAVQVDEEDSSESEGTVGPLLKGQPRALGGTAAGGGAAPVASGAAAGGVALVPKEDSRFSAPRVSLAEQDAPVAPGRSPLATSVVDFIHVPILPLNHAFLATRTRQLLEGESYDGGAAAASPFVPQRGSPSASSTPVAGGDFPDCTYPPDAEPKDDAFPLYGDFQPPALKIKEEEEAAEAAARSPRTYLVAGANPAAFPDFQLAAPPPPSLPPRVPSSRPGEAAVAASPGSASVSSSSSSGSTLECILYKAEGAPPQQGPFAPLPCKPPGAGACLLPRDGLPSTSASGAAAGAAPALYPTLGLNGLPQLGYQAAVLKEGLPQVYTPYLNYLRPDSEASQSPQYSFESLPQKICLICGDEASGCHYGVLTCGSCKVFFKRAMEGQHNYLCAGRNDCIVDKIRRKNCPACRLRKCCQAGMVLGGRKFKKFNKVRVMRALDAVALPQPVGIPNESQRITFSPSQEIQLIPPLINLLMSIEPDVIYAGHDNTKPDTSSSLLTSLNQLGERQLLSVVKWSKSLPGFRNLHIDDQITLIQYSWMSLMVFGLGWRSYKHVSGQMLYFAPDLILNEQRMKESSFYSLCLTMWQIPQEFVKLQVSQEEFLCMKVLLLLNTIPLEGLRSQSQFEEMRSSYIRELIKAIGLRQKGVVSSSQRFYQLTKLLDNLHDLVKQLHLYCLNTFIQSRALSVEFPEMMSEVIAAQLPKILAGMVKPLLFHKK

[3] = test system: progesterone-induced endometrial proliferation; assay: AntiMcGinty test; type: in vivo, rabbit; conditions: relative potency, CDB-2914 = 100 (assigned); intraluminal, rabbit
Procedure: AntiMcGinty Test (McGinty, et al., Endocrinology, 24:829-832 (1939))
Immature female rabbits of the New Zealand White breed (approx. 1 kg body weight) were maintained under standard laboratory conditions and received a subcutaneous injection of 5 μg estradiol in 10% ethanol/sesame oil daily for 6 consecutive days. Twenty-four hours after the last injection of estradiol (day 7) animals underwent sterile abdominal surgery to ligate a 3-4 cm segment of both uterine horns. The experimental compound in appropriate solvent (usually 10% ethanol/sesame oil) was injected intraluminally into the ligated segment of one uterine horn and the vehicle alone into the ligated segment of the contralateral horn. Injection volume was limited to 0.1 ml, and care was taken to prevent leakage. A stimulating dose of progesterone (0.8 mg/day) was administered subcutaneously to each rabbit daily for the next three days (days 7, 8 and 9) for the purpose of inducing endometrial proliferation. All animals were sacrificed on day 10 when a segment central to the ligatures was removed and fixed in 10% neutral buffered formalin and submitted for histological processing. Five micron sections stained with hematoxylin and eosin (H&E) were evaluated microscopically for the degree of endometrial glandular proliferation according to the method of McPhail (McPhail, J. Physiol., 83:145 (1934). The percent inhibition of endometrial proliferation for each rabbit was calculated and the mean of the group of five animals recorded.

[4] = test system: progesterone-induced endometrial proliferation; assay: AntiClauberg test; type: in vivo, rabbit; conditions: Table 2, CDB-2914 = 100 (assigned)
Summary of the method: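 Immature NZW rabbits were estradiol-primed s.c. for 6 days, then given progesterone 0.8 mg/day s.c. plus compound orally or s.c. for 5 days. Uteri were sectioned and H&E-scored for endometrial glandular proliferation (McPhail). Percent inhibition was calculated per dose versus progesterone-only animals.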

[5] = test system: pregnancy (number and condition of conceptuses); assay: Postcoital test; type: in vivo, rat; conditions: rat, days 4-6 subcu

Compound	RELATIVE BINDING AFFINITY Glucocorticoid [1] [%]	RELATIVE BINDING AFFINITY Progesterone [2] [%]	ANTIPROGESTATIONAL Anti-McGinty [3]	binding affinities compared with the standard, compound 69B ([2]; progesterone receptor implied (rabbit or human isoform A not specified))	BINDING AFFINITY Glucocortic [1] [%]	BIOLOGICAL ACTIVITY antiClauberg ([4]; oral)	BINDING AFFINITY Progester [2] [%]	Postcoital MED100 (*) [5]	BIOLOGICAL ACTIVITY antiClauberg (subcu) ([4]; subcutaneous)
CC(=O)O[C@]1(C(=O)CSC(C)=O)CC[C@H]2[C@@H]3CCC4=CC(=O)CCC4=C3[C@@H](c3ccc(N(C)C)cc3)C[C@@]21C [Compound 17, 17α-acetoxy-21-acetylthio-11β-[4-(N,N-dimethylamino)phenyl]-19-norpregna-4,9-diene-3,20-dione]	54	37	65						
CCC(=O)[C@@]1(OC(C)=O)CCC2C3CCC4=CC(=O)CCC4=C3C(c3ccc(N(C)C)cc3)C[C@@]21C (stereo partly drawn) [Compound 28, 17α-acetoxy-21-methyl-11β-[4-(N,N-dimethylamino)phenyl]-19-norpregna-4,9-diene-3,20-dione]	126	129	32	binding affinities greater than that observed for the standard					
CCC(=O)OC1(C(C)=O)CCC2C3CCC4=CC(=O)CCC4=C3C(c3ccc(N(C)C)cc3)CC21C (stereo not drawn) [Compound 69C, 17α-Propionoxy-11β-[4-(N,N-dimethylamino)phenyl]-19-norpregna-4,9-diene-3,20-dione]					49	˜10	91	2* mg/day	
CCCCCCC(=O)O[C@]1(C(C)=O)CC[C@H]2[C@@H]3CCC4=CC(=O)CCC4=C3[C@@H](c3ccc(N(C)C)cc3)C[C@@]21C [Compound 69D, 17α-Heptanoyloxy-11β-[4-(N,N-dimethylamino)phenyl]-19-norpregna-4,9-diene-3,20-dione]					89		40	inac-	weak
